# Residue numbers refer to the chain shown, from its start. Read-outs that look alike come from different tables or passages of the source.
# T1: HuTIMP-3 (Homo sapiens, UniProt P35625)
# T1 sequence (P35625 24-211): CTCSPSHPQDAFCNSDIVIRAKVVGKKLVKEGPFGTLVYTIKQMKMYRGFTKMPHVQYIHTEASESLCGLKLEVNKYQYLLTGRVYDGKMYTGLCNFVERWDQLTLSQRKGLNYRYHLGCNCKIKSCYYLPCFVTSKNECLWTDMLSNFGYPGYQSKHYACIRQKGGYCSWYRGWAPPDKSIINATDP
# T2: MuTIMP-3 (Mus musculus, UniProt P39876)
# T2 sequence (P39876 24-211): T1 sequence (P35625 24-211) with T51S, D87E, Q103H, I183S
# B1: RAP: receptor associated protein, a general inhibitor of LRP-1 (protein, UniProt P30533 35-357, looked up)
# Alpha-2-macroglobulin …: YSREKNQPKPSPKRESGEEFRMEKLNQLWEKAQRLHLPPVRLAELHADLKIQERDELAWKKLKLDGLDEDGEKEARLIRNLNVILAKYGLDGKKDARQVTSNSLSGTQEDGLDDPRLEKLWHKAKTSGKFSGEELDKLWREFLHHKEKVHEYNVLLETLSRTEEIHENVISPSDLSDIKGSVLHSRHTELKEKLRSINQGLDRLRRVSHQGYSTEAEFEEPRVIDLWDLAQSANLTDKELEAFREELKHFEAKIEKHNHYQKQLEIAHEKLRHAESVGDGERVSRSREKHALLEGRTKELGYTVKKHLQDLSGRISRARHNEL
# What was measured:
# HuTIMP-3 [1] = biological target: T1, HuTIMP-3; assay: Indirect binding ELISA with TIMP-3 presented via anti-TIMP-3 neutralizing antibody; details: human TIMP-3
# Method: After incubation, the plate contents are discarded and 250 microL/well of blocking buffer (1% BSA, TBS [pH 7.5], 1 mM CaCl2) is added to the plate which is incubated with shaking for 1 hour at room temperature. The plate is then washed three times with 200 microL/well with wash buffer 1 (TBS [pH 7.5], 1 mM CaCl2) followed by the addition of 100 microL of 20 nM recombinant human TIMP-3. The plate is incubated at room temperature for 1 hour. The LRP-1 peptides are titrated as described previously, and 100 microL/well of the diluted LRP-1 peptide titration is added to the TIMP-3 coated plate and allowed to bind for 1.5 hour at room temperature with shaking. After incubation, the plate is washed and the ELISA performed substantially as described previously for the direct binding ELISA.
# [2] = system: biotinylated recombinant human or mouse TIMP-3; assay: TIMP-3 AlphaScreen binding assay
# Method: Peptides were also evaluated by AlphaScreen® (Amplified Luminescent Proximity Homogeneous Assay; PerkinElmer, Waltham, Mass.) a very sensitive non-radioactive homogeneous assay technology that allows the screening of a large range of biological interactions and activities, substantially according to the manufacturer's instructions. Briefly, all dilutions are made in AlphaScreen® Buffer: [40 mM HEPES pH 7.5, 100 mM NaCl, 1 mM CaCl2, 0.1% BSA, 0.05% Tween-20]. The LRP-1 peptides are titrated in a separate polypropylene 96-well plate (Falcon) starting at 4 microM concentration and then diluted serially 3-fold for 12-points, with the last point buffer only. First 2 microL/well of protein titration curve is added to white, small volume, 384-well assay plate (Greiner Bio-One, Stonehouse, UK) in duplicate. Next, 2 microL of biotinylated (AFS, in-house conjmicroGation) recombinant human or mouse TIMP-3, is added at 12 nM (or 3 nM final assay concentration) to the assay plate. Lastly, in subdued light 4 microL of a mixture of streptavidin donor beads, anti-mouse IgG acceptor beads (PerkinElmer) both diluted to 20 microG/mL (10 microG/mL final assay concentration) and 2 nM (1 nM final concentration) rat-anti-HA (clone3F10)-HRP (Roche Diagnostics) is added to the plates. Plates containing 8 microL final assay volume are covered with TopSeal A (to prevent evaporation), spun quickly at 1000 rpm, and incubated overnight (covered with foil to prevent light exposure) before reading on Fusion plate reader (PerkinElmer) using AlphaScreen® parameters (excitation 680 nm and emission 520-620 nm). Data is analyzed using GraphPad Prism 4.01 software. Binding to TIMP-3 is reported as total signal (cps).
# HuTIMP-3 [3] = biological target: T1, HuTIMP-3; assay: Directly coated TIMP-3 binding ELISA (human); details: human TIMP-3; for EC50: direct
# HTB-94 cells = assay: Accumulation of TIMP-3 in the medium of cultured HTB-94 cells; assay type: cell-based
# Method: This example describes an assay to evaluate the accumulation of TIMP-3 in the medium of cultured cells. HTB-94™ cells (a chondrocytic cell line available from the American Type Culture Collection, Manassas, Va.) are plated to 24-well tissue culture plates at 1×10̂5 cells per well in 1 ml growth medium (RPM11640, 10% FBS, 1% PSG), and incubated at 37 C, 5% CO2 overnight. The cells are then washed once with PBS, and the wells are replenished with 250 microL serum-free medium (RPM11640, 1% PSG; designated SF in the tables below) to which is added the polypeptide being tested or a control (for example medium containing heparin, 1 mg/ml). Proteins to be tested are diluted to appropriate concentrations, for example as shown in the Tables below, and added to the cells. Cells are then incubated at 37 C, 5% CO2 for two additional days, day 2 conditioned medium (CM) samples are collected and clarified by centrifugation (i.e., for 5 minutes at 10K RPM) and the supernatant fluid is collected and stored at −20 C until assayed. Analysis is done on 100 microL CM samples, either by Western blot or by using a standard human TIMP-3 ELISA as per the manufacturer's protocol (R&D Systems Inc., Minneapolis, Minn.).
# MuTIMP-3 = biological target: T2, MuTIMP-3; assay: Directly coated TIMP-3 binding ELISA (mouse); details: mouse TIMP-3; for EC50: direct
# TIMP-3 = assay: Binding ELISA of LRP-1 peptides to TIMP-3 (Table 2; format and species not specified); set-up: species or system human or mouse
# A549 cells = assay: Binding and internalization of exogenous TIMP-3 by confocal microscopy; assay type: cell-based, human; details: in the presence of heparin
# Method: This example describes the internalization of exogenous TIMP-3 as examined by confocal microscopy. A549 cells (a continuous tumor-cell line from a human lung carcinoma with properties of type II alveolar epithelial cells, either wild-type or A549 cells lacking the LRP-1 gene) were incubated typically with 1 microG/ml TIMP-3 for 30 minutes at 4 degrees, with or without various pre-treatments (including heparin), then washed, fixed and stained with a fluorescently labeled anti-TIMP-3 antibody, or washed and then incubated further at 4 or 37 degrees before fixation and staining. Cells were also assayed for the accumulation of TIMP-3 in the culture medium, by Western blot or ELISA, substantially as described herein.
# [4] = system: cultured chondrocytic cells; details: cited from earlier work
# [5] = Assay 2, read-out: Binding ELISA EC50 (nm) Assay 2
molecule,measurement,setting,value
"LA4: LRP-1 peptide monomer, amino acids 895-930","EC50 in TIMP-3 Binding ELISA, Indirect HuTIMP-3",HuTIMP-3 [1],no binding
same,AlphaScreen total signal (cps) Assay 1,[2],"2,200 cps"
same,AlphaScreen total signal (cps) Assay 2,[2],"2,000 cps"
same,"EC50 in TIMP-3 Binding ELISA, Direct HuTIMP-3",HuTIMP-3 [3],no binding
same,TIMP-3 (ng/ml) in conditioned medium,"HTB-94 cells; Table 6, peptides 2 microM",1.07 ng/mL
same,"EC50 in TIMP-3 Binding ELISA, Direct MuTIMP-3",MuTIMP-3,no binding
"LA5-6: LRP-1 peptide multimer, amino acids 931-1014",AlphaScreen total signal (cps) Assay 1,[2],"6,000 cps"
same,AlphaScreen total signal (cps) Assay 2,[2],"4,000 cps"
same,EC50,HuTIMP-3 [3],> 1000 nM
same,TIMP-3 (ng/ml) in conditioned medium,"HTB-94 cells; Table 7, peptides 2 microM",2.38 ng/mL
"LA7: LRP-1 peptide monomer, amino acids 1015- (end not printed)",EC50,HuTIMP-3 [1],> 1000 nM
same,AlphaScreen total signal (cps) Assay 1,[2],"2,200 cps"
same,EC50,HuTIMP-3 [3],> 1000 nM
same,TIMP-3 (ng/ml) in conditioned medium,"HTB-94 cells; Table 6, peptides 2 microM",0.90 ng/mL
same,EC50,MuTIMP-3,> 1000 nM
"LA8-10: LRP-1 peptide multimer, amino acids 1062- (end not printed)",AlphaScreen total signal (cps) Assay 1,[2],"110,000 cps"
same,AlphaScreen total signal (cps) Assay 2,[2],"100,000 cps"
same,EC50,HuTIMP-3 [3],> 1000 nM
same,TIMP-3 (ng/ml) in conditioned medium,"HTB-94 cells; Table 7, peptides 2 microM",3.91 ng/mL
"LA15: LRP-1 peptide monomer, amino acids 2696- (end not printed)",AlphaScreen total signal (cps) Assay 1,[2],"2,200 cps"
same,AlphaScreen total signal (cps) Assay 2,[2],"2,000 cps"
same,TIMP-3 (ng/ml) in conditioned medium,"HTB-94 cells; Table 6, peptides 2 microM",1.29 ng/mL
same,EC50,MuTIMP-3,> 1000 nM
"LA17: LRP-1 peptide monomer, amino acids 2774-2817",EC50,TIMP-3; [5],> 5 µM
same,AlphaScreen total signal (cps) Assay 1,[2],"2,200 cps"
same,TIMP-3 (ng/ml) in conditioned medium,"HTB-94 cells; Table 6, peptides 2 microM",1.06 ng/mL
"LA18: LRP-1 peptide monomer, amino acids 2818-2857",EC50,TIMP-3; [5],> 10 µM
same,AlphaScreen total signal (cps) Assay 1,[2],"2,200 cps"
same,TIMP-3 (ng/ml) in conditioned medium,"HTB-94 cells; Table 6, peptides 2 microM",1.11 ng/mL
"LA19: LRP-1 peptide monomer, amino acids 2858-2903",EC50,TIMP-3; [5],> 10 µM
same,AlphaScreen total signal (cps) Assay 1,[2],"2,200 cps"
same,TIMP-3 (ng/ml) in conditioned medium,"HTB-94 cells; Table 6, peptides 2 microM",1.06 ng/mL
"LA20: LRP-1 peptide monomer, amino acids 2904-2943 (CNASSQFLCSSGRCVAEALLCNGQDDCGDSSDERGCHINE)",EC50,TIMP-3; [5],> 10 µM
same,AlphaScreen total signal (cps) Assay 1,[2],"2,200 cps"
same,TIMP-3 (ng/ml) in conditioned medium,"HTB-94 cells; Table 6, peptides 2 microM",0.96 ng/mL
"LA21-23: LRP-1 peptide multimer, amino acids 3334- (end not printed)",EC50,"TIMP-3; Assay 1, read-out: Binding ELISA EC50 (nm) Assay 1",0.243 µM
same,AlphaScreen total signal (cps) Assay 1,[2],"3,000 cps"
same,TIMP-3 (ng/ml) in conditioned medium,"HTB-94 cells; Table 7, peptides 2 microM",4.46 ng/mL
"LA23: LRP-1 peptide monomer, amino acids 3413-3452",EC50,TIMP-3; [5],> 5 µM
same,AlphaScreen total signal (cps) Assay 1,[2],"2,200 cps"
same,TIMP-3 (ng/ml) in conditioned medium,"HTB-94 cells; Table 6, peptides 2 microM",0.87 ng/mL
"LA28: LRP-1 peptide monomer, amino acids 3613-3653",AlphaScreen total signal (cps) Assay 1,[2],"2,200 cps"
same,EC50,HuTIMP-3 [3],> 1000 nM
same,TIMP-3 (ng/ml) in conditioned medium,"HTB-94 cells; Table 7, peptides 2 microM",0.99 ng/mL
same,EC50,MuTIMP-3,> 1000 nM
heparin [reference compound],TIMP-3 (ng/ml) in conditioned medium,"HTB-94 cells; Table 5, heparin control (1 mg/ml per method)",10.98 ng/mL
same,TIMP-3 (ng/ml) in conditioned medium,"HTB-94 cells; Table 6, heparin control (1 mg/ml per method)",14.55 ng/mL
same,TIMP-3 (ng/ml) in conditioned medium,"HTB-94 cells; Table 7, heparin control (1 mg/ml per method)",26.15 ng/mL
same,TIMP-3 (ng/ml) in conditioned medium,"HTB-94 cells; Table 8, heparin control (1 mg/ml per method)",17.31 ng/mL
same,Binding of TIMP-3 to the cell surface,A549 cells,decreased
B1,levels of TIMP-3 in the medium of cultured chondrocytic cells,[4],increases

# From patent publication US20140228540A1, “POLYPEPTIDES THAT BIND TISSUE INHIBITOR OF METALLOPROTEINASE TYPE THREE (TIMP-3), COMPOSITIONS AND METHODS” (Amgen Inc., priority 2009, published 2014)
